Experimental data from patent US8759073B2, “Method for effectively controlling harmful organisms in large-scale culture of microalgae” (ENN Science & Technology Development Co., Ltd., priority 2009, dated 2014).

Experiments:
Oxyrrhis = assay: Control of Oxyrrhis contamination in microalgae culture, microscope examination; format: cell-based, Oxyrrhis sp
Text: If the contaminated alga liquid is identified as acid tolerant contamination, pH value is raised up with alkalis in the culture system of the microalgae and maintained for a period of time. The pH value cannot be higher than the maximal tolerable pH of the microalgae. […] In an embodiment, said alkali can be ammonia. In an embodiment, said alkali can be NaOH. In an embodiment, said alkali can be 1M NaOH. Depending on different pH requirements and different culture systems, alkalis with different concentrations can be used according to the agitation condition, as long as the transient pH is not too high to be harmful to microalgae, and dilution of the cell concentration in the culture system (caused by adding too much alkali solution) should also be avoided. […] In an embodiment, the pH of the culture system is adjusted to 11.5-12.0 with 1M NaOH or 1M ammonia. In an embodiment, the pH of the culture system is adjusted to 11.0-11.8 or 8.0-11.0 with 1M NaOH or 1M ammonia. In an embodiment, the pH of the culture system is adjusted to 8.0-11.0, 11.5-12.0 or 11.0-11.8 and maintained for 3 hours.
Microscope examination is always used as one of the bases for determining the growth status in the process of microalgae culture.
(§1) Chlorella sp. (purchased from FACHB collection, Wuhan Aquatic Research Institure, Chinses Academy of Sciences) was cultured in a 320 L bubbling reactor (manufactured by Longfang Jiangchuan plexiglass Co. Ltd., φ300 mm×2 m) out-of-doors under a sunlight film. The culture condition included: a temperature of about 25 °C, a humidity of 60%-80%, and an illumination of 8000-20000 lux. Modified SM (see Table 2) (pH 7.0-9.0 for the normal culture) was used. […] Then, CO2 was aerated to adjust pH to be 7.0-8.0.
(§2) Chlorella sp. (obtained from Jinan University) was cultured in a 320 L bubbling reactor (manufactured by Longfang Jiangchuan plexiglass Co. Ltd., φ300 mm×2 m) out-of-doors under a sunlight film (with a temperature of about 25 °C, a humidity of 60%-80%, and an illumination of 8000-20000 lux). Modified SM medium (see Table 2) was used. When Amoeba, Oxyrrhis and ciliate contaminations were observed is with an oil immersion lens (Nikon fluorescent invert microscope Ti series), pH was adjusted to 11.0-11.8 with 1M NaOH. […] Then, CO2 was aerated continuously to saturation (pH 5.6). […] Then air was sufficiently aerated.
(§3) Chlorococcum sp. (obtained from Qingdao Marine Institute) was cultured in a 60 L glass plate reactor (manufactured by Longfang Jiangchuan plexiglass Co. Ltd., OP=10 cm) under a sunlight film (with a temperature of about 25 °C, a humidity of 60%-80%, and an illumination of 8000-20000 lux) (pH 8.0-9.0 for the normal culture). Modified BG11 medium (see Table 3) was used. […] Then CO2 was aerated and pH was adjusted to 7.0-8.0.
(§4) Chlorococcum sp. (obtained from Qingdao Marine Institute) was cultured in a 60 L glass plate reactor (manufactured by Longfang Jiangchuan plexiglass Co. Ltd., OP=10 cm) under a sunlight film (with a temperature of about 25 °C, a humidity of 60%-80%, and an illumination of 8000-20000 lux) (pH 8.0-9.0 for the normal culture). Modified BG11 medium (see Table 3) was used. […] One hour later, CO2 was aerated to saturation (about pH 5.6) for 24 hour continuously. […] Then air was sufficiently aerated.

Spirulina maxima = assay: Growth of cultured algae after treatment, 500 L raceway pond; format: cell-based; conditions: Example 15; pH adjusted with 1M ammonia
Protocol: Modified SM (see Table 2) was used. […] Then air was sufficiently aerated. Twenty-four hours later, the algae could resume to grow.
Modified SM (see Table 2) was used. […] One hour later, CO2 was aerated to saturation for 23 hour continuously (about pH 5.8). […] Then air was sufficiently aerated. Twenty-four hours later, the algae could resume to grow.

Chlorococcum sp. = assay: Growth of cultured algae after treatment, 60 L glass plate reactor; conditions: for algae growth compared with adjusting pH with NaOH: pH adjusted with 1M ammonia
Protocol: (§5) pH of the normally cultured microalgae is adjusted into various ranges. The growth rate of the microalgae is measured and their appearance is observed under a microscope.
Chlorococcum sp. (obtained from Qingdao Marine Institute) was cultured (pH 8.0-9.0 for the normal culture) in a 60 L glass plate reactor (manufactured by Longfang Jiangchuan plexiglass Co. Ltd., OP=10 cm) under a sunlight film (with a temperature of about 25 °C, a humidity of 60%-80%, and an illumination of 8000-20000 lux). Modified BG11 medium (see Table 3) was used. […] CO2 was aerated continuously. […] Then air was sufficiently aerated, and pH was raised to 7.0-8.0 in 4 hours.
as §3, §4
as §3, with “air” for “CO2”, “sufficiently aerated.” for “aerated and pH was adjusted to 7.0-8.0.”
as §3
Chlorococcum sp. (obtained from Qingdao Marine Institute) was cultured in a 60 L glass plate reactor (manufactured by Longfang Jiangchuan plexiglass Co. Ltd., OP=10 cm) under a sunlight film (with a temperature of about 25 °C, a humidity of 60%-80%, and an illumination of 8000-20000 lux) (pH 8.0-9.0 for the normal culture). Modified BG11 medium (see Table 3) was used.

Chlorella sp. = assay: Growth of cultured algae after treatment, 320 L bubbling reactor; conditions: for algae growth compared with adjusting pH with NaOH: pH adjusted with 1M ammonia
Protocol: as §5, §1
Chlorella sp. (purchased from FACHB collection, Wuhan Aquatic Research Institure, Chinses Academy of Sciences) was cultured in a 320 L bubbling reactor (manufactured by Longfang Jiangchuan plexiglass Co. Ltd., φ300 mm×2 m) out-of-doors under a sunlight film. Modified SM medium (see Table 2) (pH 7.0-9.0 for the normal culture) was used. The culture condition included: a temperature of about 25 °C, a humidity of 60%-80%, and an illumination of 8000-20000 lux. […] Then air was sufficiently aerated, and pH was raised to 7.0-7.5 after 4 hours.
as §2
as §1, with “film. Modified SM medium (see Table 2) (pH 7.0-9.0 for the normal culture) was used.” for “film.”, “lux.” for “lux. Modified SM (see Table 2) (pH 7.0-9.0 for the normal culture) was used.”, “Then” for “Then,”, “aerated and pH was adjusted” for “aerated”, “to” for “to adjust pH to be”
Chlorella sp. (obtained from Jinan University) was cultured in a 320 L bubbling reactor (manufactured by Longfang Jiangchuan plexiglass Co. Ltd., φ300 mm×2 m) out-of-doors under a sunlight film (with a temperature of about 25 °C, a humidity of 60%-80%, and an illumination of 8000-20000 lux). Modified SM medium (see Table 2) was used. […] Then CO2 was aerated to saturation (pH 5.6) for 24 hours continuously. […] Then air was sufficiently aerated.

SMILES | Oxyrrhis, result of microscope examination (Oxyrrhis; Example 2, Chlorella sp. culture, pH 11.0-11.8 with 1M NaOH, three hours) | Oxyrrhis, result of microscope examination (Oxyrrhis; Example 4, Chlorella sp. culture, mixed contamination, pH 11.0-11.8 with 1M NaOH, one hour) | Oxyrrhis, result of microscope examination (Oxyrrhis; Example 6, Chlorococcum sp. culture, pH 11.5-12.0 with 1M NaOH, three hours) | Oxyrrhis, result of microscope examination (Oxyrrhis; Example 7, Chlorococcum sp. culture, mixed contamination, pH 11.5-12.0 with 1M NaOH) | algae growth compared with adjusting pH with NaOH (Spirulina maxima) | Oxyrrhis, result of microscope examination (Oxyrrhis; Example 11, Chlorella sp. culture, pH 8.0 with 1M ammonia, three hours) | Oxyrrhis, result of microscope examination (Oxyrrhis; Example 12, Chlorella sp. culture, mixed contamination, pH 9.0 with 1M ammonia, one hour) | Oxyrrhis, result of microscope examination (Oxyrrhis; Example 13, Chlorococcum sp. culture, pH 10.0 with 1M ammonia, three hours) | Oxyrrhis, result of microscope examination (Oxyrrhis; Example 14, Chlorococcum sp. culture, mixed contamination, pH 9.0 with 1M ammonia) | time until algae started to grow (Chlorococcum sp.; Example 13, pH 10.0 with 1M ammonia 3 h, then CO2 to pH 7.0-8.0) | algae growth compared with adjusting pH with NaOH (Chlorococcum sp.; Example 13) | algae growth compared with adjusting pH with NaOH (Chlorococcum sp.; Example 14) | time until algae started to grow (Chlorella sp.; Example 11, pH 8.0 with 1M ammonia 3 h, then CO2 to pH 7.0-8.0) | algae growth compared with adjusting pH with NaOH (Chlorella sp.; Example 11) | algae growth compared with adjusting pH with NaOH (Chlorella sp.; Example 12)
[Na+].[OH-] [1M NaOH, NaOH] | almost no Oxyrrhis | essentially inactivated | almost no Oxyrrhis | essentially inactivated | – | – | – | – | – | – | – | – | – | – | –
N [1M ammonia, ammonia] | – | – | – | – | clearly grew better | almost no Oxyrrhis was observed | lost its activity essentially | almost no Oxyrrhis | inactivated essentially | 18 h | clearly grew better | clearly grew better | 18 h | clearly grew better | clearly grew better
